Tests used:
duck salad = assay: Test B flood test duck salad; type: in vivo, Heteranthera limosa
Summary of the method: (§1)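 Read-out is a visual response score from 0 (no effect) to 10 (complete control), assigned by comparison with untreated controls. Treatment was applied at the 2-leaf stage, and plants stayed in the greenhouse for twelve to sixteen days before scoring.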

giant foxtail = assay: Test B pre/postemergence giant foxtail; type: in vivo, Setaria faberii
Summary of the method: (§2)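 Test chemicals in a non-phytotoxic solvent mixture with surfactant were sprayed preemergence onto planted seeds and postemergence onto plants 2 to 18 cm tall (1- to 4-leaf stage). After twelve to sixteen days in a greenhouse, injury was visually rated against untreated controls from 0 (no effect) to 10 (complete control).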

velvetleaf = assay: Test B pre/postemergence velvetleaf; type: in vivo, Abutilon theophrasti
Summary of the method: as §2

wheat = assay: Test B pre/postemergence wheat; type: in vivo, Triticum aestivum
Summary of the method: as §2

soybean = assay: Test B pre/postemergence soybean; type: in vivo, Glycine max
Summary of the method: as §2

blackgrass = assay: Test B pre/postemergence blackgrass; type: in vivo, Alopecurus myosuroides
Summary of the method: as §2

bedstraw = assay: Test B pre/postemergence bedstraw; type: in vivo, Galium aparine; settings: Preemergence
Summary of the method: as §2

pigweed = assay: Test B pre/postemergence pigweed; type: in vivo, Amaranthus retroflexus
Summary of the method: as §2

rice = assay: Test B flood test rice; type: in vivo, Oryza sativa
Summary of the method: as §1

purple nutsedge = assay: Test B pre/postemergence purple nutsedge; type: in vivo, Cyperus rotundus
Summary of the method: as §2

wild oat = assay: Test B pre/postemergence wild oat; type: in vivo, Avena fatua
Summary of the method: as §2

cocklebur = assay: Test B pre/postemergence cocklebur; type: in vivo, Xanthium strumarium
Summary of the method: as §2

surinam grass = assay: Test B pre/postemergence surinam grass; type: in vivo, Brachiaria decumbens
Summary of the method: as §2

sugar beet = assay: Test B pre/postemergence sugar beet; type: in vivo, Beta vulgaris
Summary of the method: as §2

crabgrass = assay: Test B pre/postemergence crabgrass; type: in vivo, Digitaria sanguinalis
Summary of the method: as §2

corn = assay: Test B pre/postemergence corn; type: in vivo, Zea mays
Summary of the method: as §2

[1] = Rate 62 g/ha, flood test species, Pre-emergence, visual evaluation after twelve to sixteen days
[2] = Rate 125 g/ha, under heading Pre-emergence, flood test species, visual evaluation after twelve to sixteen days
[3] = Rate 250 g/ha, Pre-emergence, flood-test species, scale 0 to 10, 0 is no effect, 10 is complete control
[4] = Rate 500 g/ha, Pre-emergence, flood test species, scale 0 to 10 (0 no effect, 10 complete control)
[5] = Postemergence, Rate 125 g/ha, scale 0 to 10, 0 is no effect, 10 is complete control
[6] = Postemergence, Rate 250 g/ha, scale 0 to 10, 0 is no effect, 10 is complete control
[7] = Postemergence, Rate 500 g/ha, scale of 0 to 10 where 0 is no effect and 10 is complete control
[8] = Preemergence, Rate 62 g/ha, scale 0 to 10 (0 no effect, 10 complete control)
[9] = Preemergence, Rate 125 g/ha, scale of 0 to 10 where 0 is no effect and 10 is complete control
[10] = Preemergence, Rate 250 g/ha, scale 0 to 10, 0 is no effect, 10 is complete control
[11] = Preemergence, Rate 500 g/ha, scale 0 to 10, 0 is no effect, 10 is complete control
[12] = Rate 62 g/ha, Postemergence, scale of 0 to 10 where 0 is no effect and 10 is complete control
[13] = Preemergence, Rate 250 g/ha, scale of 0 to 10 where 0 is no effect and 10 is complete control

Cc1nc(Cl)sc1C(C)n1c(=O)on(C(=O)N(c2ccc(F)cc2)C(C)C)c1=O (stereo not drawn) [Compound 401]
Plant response rating, Ducksalad (0 to 10 scale, 0 is no effect, 10 is complete control) (duck salad; [1]): 0 | Ducksalad plant response rating (0 to 10 scale, 0 is no effect, 10 is complete control) (duck salad; [2]): 0 | Ducksalad plant response rating (duck salad; [3]): 0 | Ducksalad plant response rating (duck salad; [4]): 0 | Plant response rating, Giant foxtail (giant foxtail; [5]): 0 | Plant response rating, Giant foxtail (giant foxtail; [6]): 2 | Giant foxtail plant response rating (giant foxtail; [7]): 6 | Plant response rating, Giant foxtail (giant foxtail; [8]): 0 | Plant response rating, Giant foxtail (giant foxtail; [9]): 6 | Giant foxtail plant response rating (giant foxtail; [10]): 7 | Giant foxtail plant response rating (giant foxtail; [11]): 8 | Giant foxtail plant response rating (giant foxtail; [12]): 0 | Plant response rating, Velvetleaf (velvetleaf; [6]): 0 | Velvetleaf plant response rating (velvetleaf; [7]): 3 | Plant response rating, Velvetleaf (velvetleaf; [8]): 0 | Plant response rating, Velvetleaf (velvetleaf; [9]): 0 | Velvetleaf plant response rating (velvetleaf; [10]): 0 | Velvetleaf plant response rating (velvetleaf; [11]): 0 | Velvetleaf plant response rating (velvetleaf; [12]): 0 | Wheat plant response rating (wheat; [7]): 0 | Plant response rating, Wheat (wheat; [8]): 0 | Plant response rating, Wheat (wheat; [9]): 0 | Wheat plant response rating (wheat; [10]): 0 | Wheat plant response rating (wheat; [11]): 0 | Wheat plant response rating (wheat; [12]): 0 | Plant response rating, Soybean (soybean; [6]): 1 | Soybean plant response rating (soybean; [7]): 1 | Plant response rating, Soybean (soybean; [8]): 0 | Plant response rating, Soybean (soybean; [9]): 0 | Soybean plant response rating (soybean; [10]): 0 | Soybean plant response rating (soybean; [11]): 3 | Soybean plant response rating (soybean; [12]): 0 | Plant response rating, Blackgrass (blackgrass; [5]): 0 | Plant response rating, Blackgrass (blackgrass; [6]): 0 | Blackgrass plant response rating (blackgrass; [7]): 0 | Plant response rating, Blackgrass (blackgrass; [8]): 0 | Plant response rating, Blackgrass (blackgrass; [9]): 0 | Blackgrass plant response rating (blackgrass; [13]): 0 | Blackgrass plant response rating (blackgrass; [11]): 2 | Blackgrass plant response rating (blackgrass; [12]): 0 | Plant response rating, Bedstraw (bedstraw; Rate 62 g/ha, scale 0 to 10 (0 no effect, 10 complete control)): 0 | Plant response rating, Bedstraw (bedstraw; Rate 125 g/ha, scale of 0 to 10 where 0 is no effect and 10 is complete control): 0 | Plant response rating, Redroot pigweed (pigweed; [6]): 1 | Redroot pigweed plant response rating (pigweed; [7]): 2 | Plant response rating, Redroot pigweed (pigweed; [8]): 0 | Plant response rating, Redroot pigweed (pigweed; [9]): 0 | Redroot pigweed plant response rating (pigweed; [10]): 0 | Redroot pigweed plant response rating (pigweed; [11]): 0 | Redroot pigweed plant response rating (pigweed; [12]): 0 | Plant response rating, Rice (0 to 10 scale, 0 is no effect, 10 is complete control) (rice; [1]): 0 | Rice plant response rating (0 to 10 scale, 0 is no effect, 10 is complete control) (rice; [2]): 0 | Rice plant response rating (rice; [3]): 0 | Rice plant response rating (rice; [4]): 0 | Plant response rating, Nutsedge (purple nutsedge; [6]): 0 | Nutsedge plant response rating (purple nutsedge; [7]): 0 | Plant response rating, Nutsedge (purple nutsedge; [8]): 0 | Plant response rating, Nutsedge (purple nutsedge; [9]): 0 | Nutsedge plant response rating (purple nutsedge; [10]): 0 | Nutsedge plant response rating (purple nutsedge; [11]): 0 | Nutsedge plant response rating (purple nutsedge; [12]): 0 | Wild oats plant response rating (wild oat; [7]): 0 | Plant response rating, Wild oats (wild oat; [8]): 0 | Plant response rating, Wild oats (wild oat; [9]): 0 | Wild oats plant response rating (wild oat; [10]): 0 | Wild oats plant response rating (wild oat; [11]): 0 | Wild oats plant response rating (wild oat; [12]): 0 | Plant response rating, Cocklebur (cocklebur; [5]): 0 | Plant response rating, Cocklebur (cocklebur; [6]): 0 | Cocklebur plant response rating (cocklebur; [7]): 1 | Plant response rating, Cocklebur (cocklebur; [8]): 0 | Plant response rating, Cocklebur (cocklebur; [9]): 0 | Cocklebur plant response rating (cocklebur; [10]): 0 | Cocklebur plant response rating (cocklebur; [11]): 0 | Cocklebur plant response rating (cocklebur; [12]): 0 | Plant response rating, B. signalgrass (surinam grass; [5]): 0 | Plant response rating, B. signalgrass (surinam grass; [6]): 0 | B. signalgrass plant response rating (surinam grass; [7]): 0 | Plant response rating, B. signalgrass (surinam grass; [8]): 0 | Plant response rating, B. signalgrass (surinam grass; [9]): 0 | B. signalgrass plant response rating (surinam grass; [13]): 0 | B. signalgrass plant response rating (surinam grass; Preemergence, Rate 500 g/ha, scale of 0 to 10 where 0 is no effect and 10 is complete control): 0 | B. signalgrass plant response rating (surinam grass; [12]): 0 | Plant response rating, Sugarbeets (sugar beet; [6]): 0 | Sugarbeets plant response rating (sugar beet; [7]): 0 | Plant response rating, Sugarbeets (sugar beet; [8]): 0 | Plant response rating, Sugarbeets (sugar beet; [9]): 0 | Sugarbeets plant response rating (sugar beet; [10]): 0 | Sugarbeets plant response rating (sugar beet; [11]): 0 | Sugarbeets plant response rating (sugar beet; [12]): 0 | Plant response rating, Crabgrass (crabgrass; [5]): 0 | Plant response rating, Crabgrass (crabgrass; [6]): 2 | Crabgrass plant response rating (crabgrass; [7]): 3 | Plant response rating, Crabgrass (crabgrass; [8]): 0 | Plant response rating, Crabgrass (crabgrass; [9]): 2 | Crabgrass plant response rating (crabgrass; [10]): 8 | Crabgrass plant response rating (crabgrass; [11]): 10 | Crabgrass plant response rating (crabgrass; [12]): 0 | Plant response rating, Corn (corn; [5]): 0 | Plant response rating, Corn (corn; [6]): 0 | Corn plant response rating (corn; [7]): 0 | Plant response rating, Corn (corn; [8]): 0 | Plant response rating, Corn (corn; [9]): 0 | Corn plant response rating (corn; [10]): 0 | Corn plant response rating (corn; [11]): 0 | Corn plant response rating (corn; [12]): 0

Reference: patent US6737383B1, “Herbicidal oxadiazolidines” (priority 1999, dated 2004)
